The text below walks through data of patent publication US8076449B2, “Therapeutic agents of colivelin for neurodegenerative diseases” (Tomohiro Chiba, priority 2004, dated 2011).

“Also recorded” adds a separate entry of the source. Ends that are not written are not given here.

The test system of test [1] is primary cultured cortical neurons treated with Aβ (1-43). The test is described as follows: Neuronal cell death induced by Aβ (1-43) peptide, WST-8 and calcein cell viability assays. In kind it is cell-based, mouse. How it is done: (ii) Test of Neuronal Cell Death Induced by Aβ (1-43) Peptide
Mouse cortical neurons were primarily cultured on a poly-D-lysine-coated 96-well plate (Sumitomo Bakelite, Akita, Japan) in the absence of serum and the presence of N2 […] according to the previous report (Sudo et al., 2000, Mol. Cell. Neurosci., 16: 708-723). The purity of the neurons by this method was 98% or more. The prepared neurons (5.0×10^4 cells/well, 100 μl of medium/well) were cultured for 72 hours in the presence or absence of varying concentrations (100 aM, 1 fM, 10 fM, 100 fM, 1 pM, 10 pM, 100 pM, 1 nM, 10 nM, or 100 nM) of colivelin or AGA-C8R-HNG17 peptide. Since primary cultured neurons temporarily become fragile during medium replacement, the neurons were treated with 25 μM Aβ as follows: at first, a half volume (50 μl) of the old medium was discarded. Next, 50 μM Aβ and 50 μl of prewarmed fresh medium containing varying concentrations of colivelin or AGA-CBR-HNG17 peptides were added to the culture. Aβ (1-43) was purchased from Peptide Institute. The Aβ peptides used at the concentration of 25 μM for inducing neuronal cell death formed aggregation in the medium during 72-hour cell culture at 37° C. (Hashimoto Y, et al., 2001, J Neurosci 21: 9235-9245).
WST-8 cell viability assay was conducted with Cell Counting Kit-8 according to the previous report (Hashimoto Y, et al, 2001, Proc Natl Acad Sci USA 98: 6336-6341).
Calcein assay was conducted with calcein-AM (Dojindo, Kumamoto, Japan) according to the previous report (Hashimoto Y, et al., 2001, J Neurosci 21: 9235-9245).
These assays were simultaneously performed. After 72 hours of the Aβ treatment, the cells were added to a mixture of 10 μl of WST-8 solution and 1 μl of 600 μM calcein-AM and cultured at 37° C. for 2 hours in a CO2 incubator to measure a WST-8 absorption at O.D. 450. To decrease background, the medium was replaced by phosphate-buffered saline, followed by the measurement of calcein-specific fluorescence (excitation: 485 nm, emission: 535 nm) by fluorescence microcopy or with a spectrofluorometer (Wallac 1420 ARVOsx Multi Label Counter; Perkin Elmer, Wellesley, Mass., USA).

For test [2], the system named is F11 cells transformed with M146L-PS1. The test is described as follows: M146L-PS1-induced neuronal cell death in the presence of ADNF, Trypan blue exclusion assay. The note with it: for concentration completely suppressing M146L-PS1-induced cell death in the presence of ADNF: in the presence of 100 nM ADNF, 72 hours. In kind it is cell-based, rat/mouse hybrid. How it is done:
The protective effect of colivelin and ADNF used together against neuronal cell death induced by M146L-PS1 was examined. F11 cells were transformed with M146L-PS1 in the presence or absence of […] and treated with varying concentrations (100 aM, 1 fM, 10 fM, 100 fM, 1 pM, 10 pM, 100 pM, 1 nM, 10 nM, or 100 nM) of colivelin or AGA-C8R-HNG17.
After 72 hours of the transformation, cell mortality was measured by Trypan blue exclusion assay (FIG. 4). Approximately 50% of the neuronal cells died after the transformation with mutant PS1 gene, whereas only 10% of the untreated or empty vector-transformed cells died. […] When the M146L-PS1-transformed neuronal cells in the presence of 100 nM ADNF were treated with 10 pM colivelin, the neuronal cells died at a rate equal to that of the untreated (No) or empty vector (vec)-transformed cells.

Another test has as its system G93A-SOD1 Tg mice. The test is described as follows: In vivo effect on ALS mice: onset, survival, rotarod (Example 5). More on the design: species or system mouse. How it is done:
Mice treated with a control (n=16), ADNF (n=15), AGA-C8R-HNG17 (n=14), or colivelin (n=13) were compared by the Kaplan-Meier life test. In addition, the average day of death was compared (FIG. 8c), wherein statistical analysis was conducted by one-way ANOVA, followed by Fischer's PLSD test (**p<0.01). The motor function was evaluated by a rotarod test (FIG. 8d). Mice icy-administered with a control (n=13), ADNF (n=14), AGA-C8R-HNG17 (n=14), or colivelin (n=12) were placed onto a rotating rod at a speed of 5 rpm and observed over max 420 seconds, wherein statistical analysis was conducted by repeatedly measured ANOVA and Fischer's PLSD test.
Cannulas were fixed under aseptic conditions to the left lateral ventricles of G93A-SOD1 Tg mice (ALS model mice, 70-day-old). Colivelin ([…] in 3 μl of saline per two days) was icy-injected through the cannulas to compare its protective effect with those of the same amount of ADNF and AGA-C8R-HNG17 (FIG. 8).
The 1-onset (FIG. 8a) and survival (FIG. 8b) of mice treated with a control (n=16), ADNF (n=15), AGA-C8R-HNG17 (n=14), or colivelin (n=13) were compared by the Kaplan-Meier life test. As a result, the colivelin-treated group completely delayed ALS onset up to approximately 114 days, as compared with the ADNF-treated group (approximately 106 days) and the AGA-C8R-HNG17-treated group (approximately 108 days). Regarding survival as well, the colivelin-treated group prolonged the life span of 100% of the mice up to approximately 145 days, as compared with the ADNF-treated group (approximately 133 days) and the AGA-CBR-HNG17-treated group (approximately 138 days). Average age at death was longest in the colivelin-treated mice and was approximately 153 days (FIG. 8c).
Additionally, the motor function was evaluated by the rotarod test (FIG. 8d). Mice treated with a control (n=13), ADNF (n=14), AGA-C8R-HNG17 (n=14), or colivelin (n=12) were placed onto a rotating rod at a speed of 5 rpm and observed over max 420 seconds, wherein statistical analysis was conducted by ANOVA and Fischer's PLSD test.

The mark [3] stands for this setting: 10 μmol in 3 μl of saline per two days, icv.
The mark [4] stands for this setting: Aβ (1-43)-induced neuronal cell death.

“PAGASRLLLLTGEIDLP [AGA-C8R-HNG17, Pro-Ala-Gly-Ala-Ser-Arg-Leu-Leu-Leu-Leu-Thr-Gly-Glu-Ile-Asp-Leu-Pro, reference compound]”: the “concentration achieving complete protection” value in test [1] (25 μM Aβ (1-43), 72 hours) is 10000 fM. For the same sequence, the EC50 in test [1] (25 μM Aβ (1-43), 72 hours, WST-8, read-out: concentration at which half of the neurons were rescued) is 1 pM. For the same sequence, the “concentration completely suppressing M146L-PS1-induced cell death in the presence of ADNF” value in test [2] was 10 pM. Moreover, in the test on G93A-SOD1 Tg mice (setting [3]), the “ALS onset completely delayed up to (Kaplan-Meier)” value (from here on “ALS onset completely delayed up”) is on record as “approximately 108 days” and the “life span of 100% of the mice prolonged up to (Kaplan-Meier survival)” value was “approximately 138 days”.
On to SALLRSIPA [ADNF, reference compound], for which the “concentration achieving complete protection” value in test [1] (25 μM Aβ (1-43), 72 hours) is listed as 100 fM. In addition, the “concentration at or over which protective activity attenuated” value in test [1] (Aβ (1-43) toxicity) was at least 1 nM. Further, the “effect of ADNF itself on cell death” value in test [2] (100 nM ADNF alone) is “Neither general cell death nor M146L-PS1-induced neuronal cell death was affected”. Also, in the test on G93A-SOD1 Tg mice (setting [3]), the “ALS onset completely delayed up” value was “approximately 106 days” and the “life span of 100% of the mice prolonged up to (Kaplan-Meier survival)” value is listed as “approximately 133 days”.
For the sequence SALLRSIPAPAGASRLLLLTGEIDLP [colivelin], the “concentration achieving complete protection” value in test [1] (25 μM Aβ (1-43), 72 hours) is given as 100 fM. Moreover, in test [1] (setting [4]), the “potency relative to AGA-C8R-HNG17” value is recorded as 100 fold and the “potency relative to HNG” value was 100,000 fold. In test [1] (at 100 nM), the “protective activity at high concentration” value is given as “did not disappear”. Also, in test [2] (M146L-PS1, 10 pM with ADNF versus without), the “activity level with 100 nM ADNF relative to that without ADNF” value is listed as 1/100. The “concentration completely suppressing M146L-PS1-induced cell death in the presence of ADNF” value in test [2] came to 10 pM. Besides, in the test with G93A-SOD1 Tg mice (setting [3]), the “ALS onset completely delayed up” value is “approximately 114 days”, the “average age at death” value was “approximately 153 days” and the “life span of 100% of the mice prolonged up to (Kaplan-Meier survival)” value is reported as “approximately 145 days”. Moreover, the “motor function by rotarod test” value in the test on G93A-SOD1 Tg mice (5 rpm, max 420 seconds, icv treatment) was “ameliorated most; also recorded: significantly better”.
